Where two headings read alike, the source gives them in different places.
Tests used:
Type in all cases: in vivo
Piricularia oryzae [1] = conditions: for Rice Blast Lesions per 5th Leaf: Table 2, protectant, untreated control 22; for Rice Blast Lesions/5th Leaf Protectant: Table 1, untreated 52
[2] = tested on: Rice, variety Calusa No. 2; test: Phytotoxicity / injury on rice in greenhouse bioassay; conditions: Table 2, rice
Method: Host: Rice, variety Calusa No. 2.
Growth Conditions: Rice plants grown to 5 leaf stage in greenhouse on Swiss Farm Potting soil in 7 ounce styrafoam pots. Thinned to 3 seedlings per pot. Day temperature 20°-28° C.; night temperature 15°-20° C. Soluble 20--20--20 fertilizer applied weekly.
Treatment: Test solutions or suspensions of candidate compounds sprayed on both leaf surfaces to run-off with a No. 152 DiVilbiss atomizer at 10 psi. Formulations are prepared by dissolving compounds in methanol-Tween 20 mixture and bringing to volume with deionized water.

[3] = tested on: Puccinia recondita f. sp. tritici; conditions: 1000 PPM; untreated 42
Piricularia oryzae [4] = conditions: 1000 PPM; untreated 69
Phytophthora infestans = conditions: untreated 84
[5] = tested on: Puccinia recondita f. sp. tritici; conditions: untreated 27

CCCCNC(=O)n1c(NC(=O)OC)nc2ccccc21 [Benomyl, [1-[(Butylamino)carbonyl]-1H-benzimidazol-2-yl]carbamic acid methyl ester]
Rice Blast Lesions per 5th Leaf (Piricularia oryzae [1]; 1 PPM): 4 | Rice Blast Lesions per 5th Leaf (Piricularia oryzae [1]; 10 PPM): 4 | Rice Blast Lesions per 5th Leaf (Piricularia oryzae [1]; 100 PPM): 0.1 | Remarks (plant injury) ([2]; 1 PPM): no injury | Remarks (plant injury) ([2]; 10 PPM): no injury | Remarks (plant injury) ([2]; 100 PPM): no injury

CC1=C(C(=O)Nc2ccccc2)SCCO1 [Carboxin, 5,6Dihydro-2-methyl-N-phenyl-1,4-oxathiin-3-carboxamide]
Wheat Leaf Rust Pustules/Leaf Systemic [3]: 4

CCOP(=O)(Sc1ccccc1)Sc1ccccc1 [Hinosan, O-Ethyl 5,5-diphenylphosphorodithioate]
Rice Blast Lesions/5th Leaf Protectant (Piricularia oryzae [1]; 1 PPM): 16 | Rice Blast Lesions/5th Leaf Protectant (Piricularia oryzae [1]; 10 PPM): 8 | Rice Blast Lesions/5th Leaf Protectant (Piricularia oryzae [1]; 100 PPM): < 1 | Rice Blast Lesions/5th Leaf Systemic (Piricularia oryzae [4]): 31

S=C([S-])NCCNC(=S)[S-].[Mn+2] [Maneb, [[1,2-Ethanediylbis[carbamodithioato]]-(2-)]manganese]
Late Blight (Tomato) Phytophthora % Leaf Necrosis Protectant (Phytophthora infestans; 1 PPM): 77% | Late Blight (Tomato) Phytophthora % Leaf Necrosis Protectant (Phytophthora infestans; 10 PPM): 63% | Late Blight (Tomato) Phytophthora % Leaf Necrosis Protectant (Phytophthora infestans; 100 PPM): 11% | Wheat Leaf Rust Pustules/Leaf Protectant ([5]; 1 PPM): 20 | Wheat Leaf Rust Pustules/Leaf Protectant ([5]; 10 PPM): 12 | Wheat Leaf Rust Pustules/Leaf Protectant ([5]; 100 PPM): 0

From patent US4201771A (priority 1979, dated 1980)
